Laboratory results from PMC10766610, “DCAF1-based PROTACs with activity against clinically validated targets overcoming intrinsic- and acquired-degrader resistance” (Nature Communications, 2024).

Key:
[1] = molecular target: T1, BRD9 (Homo sapiens, UniProt Q9H8M2); assay: Immunoblot of BRD9 in HEK293 BRD9-HiBiT/FF/CAS9 cells; assay type: cell-based; set-up: host or cells: HEK293/BRD9-HiBiT knock-in; clone and BRD9-HiBiT/CAS9/FF clone
T1 sequence (Q9H8M2 1-597): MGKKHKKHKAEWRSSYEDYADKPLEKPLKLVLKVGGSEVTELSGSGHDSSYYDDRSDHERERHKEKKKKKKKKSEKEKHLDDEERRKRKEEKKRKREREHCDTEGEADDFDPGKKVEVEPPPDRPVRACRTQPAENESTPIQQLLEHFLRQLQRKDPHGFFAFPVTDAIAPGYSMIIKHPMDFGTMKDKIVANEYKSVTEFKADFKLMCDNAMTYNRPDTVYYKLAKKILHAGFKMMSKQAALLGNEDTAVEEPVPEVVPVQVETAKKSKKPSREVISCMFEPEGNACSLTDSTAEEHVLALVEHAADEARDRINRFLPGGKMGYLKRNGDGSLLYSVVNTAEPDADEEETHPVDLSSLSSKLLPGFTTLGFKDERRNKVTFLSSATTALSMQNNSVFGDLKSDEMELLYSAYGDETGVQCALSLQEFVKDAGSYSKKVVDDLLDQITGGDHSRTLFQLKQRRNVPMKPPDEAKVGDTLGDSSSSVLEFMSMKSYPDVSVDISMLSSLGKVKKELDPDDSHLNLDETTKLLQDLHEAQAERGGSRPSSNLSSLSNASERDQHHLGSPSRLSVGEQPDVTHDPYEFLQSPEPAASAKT
Method: Whole cell lysates for immunoblotting were prepared by pelleting cells at 4 °C (300 g) for 3 min. Cell pellets were then washed 1x with PBS and resuspended in RIPA lysis buffer (VWR, cat # 97063-270) supplemented with protease (Thermo Scientific, cat # A32955) and phosphatase (Thermo Scientific, cat # A32957) inhibitor tablets. Lysates were clarified at 16,000 × g for 15 min at 4 °C prior to quantification by Lowry assay (Bio-Rad cat # 5000113 and cat # 5000114). Whole-cell lysates were loaded into 4–20% Criterion TGX Precast 18 well gels (Bio-Rad, cat # 5671094) and separated by electrophoreses at 120 V for 1 h. The gels were transferred to a nitrocellulose membrane using the Trans-Blot Turbo (Bio-Rad) for 7 min and then blocked for 1 h at room temperature in Odyssey blocking buffer (LICOR Biosciences, cat # 927-50000). Membranes were probed with the appropriate primary antibodies (diluted 1:1000) overnight at 4 °C in 20% Odyssey blocking buffer in 1x TBST. Membranes were washed three times with 1x TBST (5 min per wash), and then incubated with IRDye goat anti-mouse (LICOR, cat # 926-32210) or goat anti-rabbit (LICOR, cat # 926-32211) secondary antibody diluted 1:10,000 in 20% Odyssey blocking buffer for 1 h at room temperature. After three 5-min washes with 1x TBST, the immunoblots were visualized using the ODYSSEY Infrared Imaging System (LICOR). Alternatively, SDS-PAGE resolved proteins were transferred to a PVDF membrane using a wet blotting system (Invitrogen). Membranes were blocked in 5% Milk-PBS-Tween 20 for 1 h and incubated with primary antibody over night at 4 °C. Secondary antibodies (secondary antibody: anti-rabbit, goat pAb to Rb-IgG (Abcam, #7090); secondary antibody: anti-mouse, sheep IgG HRP-linked (GE healthcare, #NA931V)) were incubated for 1 h at room temperature (RT) before blots were developed on film using the detection kit SuperSignal West Femto Maximum Sensitivity Substrate (Thermo Fisher, #34096).

[2] = molecular target: BTK (Homo sapiens, UniProt Q06187); assay: Intracellular BTK engagement NanoBRET, intact HEK293A cells; assay type: cell-based; conditions: 2 h, read-out: IC50 BTK target engagement
Method: Thus, HEK293A cells were batch-transfected by adding 1 μg pLenti6 BTK-Nanoluc vector and 9 μg Transfection Carrier DNA (pcDNA3.1 Hygro+) to 1 mL of Opti-MEM without phenol red (Thermo Fisher). After addition of 40 μL ViaFect (Promega) and incubation for 20 min, the DNA:lipid mixture was added to trypsinized HEK293A cells suspended at 2 × 10^5/mL in 10 ml growth medium. 100 μL of the resulting cell:DNA:lipid suspension was then seeded at 2 × 10^4 cells/well into white, clear-bottom 96-well plates (Costar) that were pre-coated with poly-D-Lysine by incubation for 60 min with 30 μL of a sterile-filtered solution of 0.1 mg PDL (Mpbio) dissolved in phosphate-buffered saline, followed by a wash with 200 μL sterile phosphate-buffered and airdrying. […] To measure BRET, NanoBRET NanoGlo substrate (Promega, final dilution of 1:1000) and Extracellular NanoLuc Inhibitor (Promega, final concentration 20 μM) were added, followed by quantification of donor and acceptor luminescence emission on a Pherastar FX (BMG Labtech) multimode reader using 460 nm band-pass and 610 nm long-pass filters, respectively. […]
The mBU values for each treated sample was then divided by the average mBU value determined based on four DMSO-treated vehicle control samples and multiplied by 100 to arrive at % of vehicle-treated control. […]

BTK, sequence (Q06187 2-659 limits assumed): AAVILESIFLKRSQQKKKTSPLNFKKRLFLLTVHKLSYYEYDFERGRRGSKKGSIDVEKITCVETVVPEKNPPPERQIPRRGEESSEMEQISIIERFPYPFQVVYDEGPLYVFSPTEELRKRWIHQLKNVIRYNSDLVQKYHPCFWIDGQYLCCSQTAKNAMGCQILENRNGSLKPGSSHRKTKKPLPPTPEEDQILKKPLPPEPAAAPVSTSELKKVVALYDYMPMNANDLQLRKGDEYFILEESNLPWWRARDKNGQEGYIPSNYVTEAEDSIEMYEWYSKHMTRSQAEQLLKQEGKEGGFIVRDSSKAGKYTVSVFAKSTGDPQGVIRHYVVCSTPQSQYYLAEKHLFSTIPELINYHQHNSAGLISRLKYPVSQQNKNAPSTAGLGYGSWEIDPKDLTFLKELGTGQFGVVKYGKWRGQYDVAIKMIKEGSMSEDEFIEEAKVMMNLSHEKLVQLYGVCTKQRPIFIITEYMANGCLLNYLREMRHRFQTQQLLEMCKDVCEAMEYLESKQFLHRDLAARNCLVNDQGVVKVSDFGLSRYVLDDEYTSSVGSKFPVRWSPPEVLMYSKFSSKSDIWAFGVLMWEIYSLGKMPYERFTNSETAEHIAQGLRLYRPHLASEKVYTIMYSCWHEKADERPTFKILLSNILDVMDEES

COc1cc(-c2cn(C)c(=O)c3cnccc23)c(OC)cc1CN1CCC(OCCCCCC(=O)N2CCN(c3ccc4c(NCCN)nc(C5(c6ccc(Cl)cc6)CCCCC5)nc4c3)CC2)CC1 [DBr-1]
BRD9 protein loss ([1]; 1000 nM, 6 h, HEK293 cells): about 90% | BRD9 degradation ([1]; 1000 nM, after 30 min): 90% | DC50 ([1]; 6 h, HEK293 cells, immunoblot, read-out: DC50 BRD9 estimated from dose-response curve): ~500 nM

Cc1c(NC(=O)c2ccc(C(C)(C)O)cc2F)cc(F)cc1-c1ncnc2[nH]c(-c3ccc(CNCCOCCOCCOCCOCCOCCOCCOCCOCCOCCOCCOCCOCCC(=O)N4CCN(c5ccc6c(NCCN)nc(C7(c8ccc(Cl)cc8)CCCCC7)nc6c5)CC4)cc3)cc12 [DBt-5]
IC50 [2]: 392 nM

Cc1c(NC(=O)N2CC(O)(CC(C)(C)C)C2)cc(F)cc1-c1ncnc2[nH]c(-c3cnn(CC(=O)N4CCC5(CC4)CN(CCNC(=O)CCCC(=O)N4CCN(c6ccc7c(NCCN)nc(C8(c9ccc(Cl)cc9)CCCCC8)nc7c6)CC4)CCO5)c3)cc12 [DBt-10]
IC50 [2]: 1680 nM

CC(=O)N1CCN(c2ccc3c(NCCN)nc(C4(c5ccc(Cl)cc5)CCCCC4)nc3c2)CC1 [compound 13]
BRD9 protein reduction by individual binders ([1]; 1000 nM, 6 h): No BRD9 protein reduction
